Reference: patent US5206238A, “Cholecystokinin antagonists” (Merck & Co., Inc., priority 1992, dated 1993)

Tests used:
Sprague Dawley rats [1] = conditions: cited from earlier work
DBA2 mice [2] = conditions: rodents, literature (Crawley); cited from earlier work
DBA2 mice [3] = test: black/white exploration test (animal model of anxiety); format: in vivo; conditions: for active dose range: anxiolytic properties in mice
From the text: The black/white exploration test [Crawley et al. Pharmacology, Biochemistry and Behav. 13, 167 (1980)] is a simple animal model of anxiety. Rodents placed in a two compartment box which consists of a brightly lit, white painted side and a dimly lit, black painted side, display a marked preference for the black side of the apparatus. This behavior is caused by the aversive properties of the brightly lit, white painted section. Classical anxiolytic drugs [such as diazepam, see Crawley, supra] and novel anxiolytic drugs [such as 5HT3 antagonists, see Jones et al. Br. J. Pharm.
A. Naive male DBA2 mice (25-30) were housed on a reversed light/dark cycle and tested during the dark phase of the cycle under dim red light. The apparatus consisted of an open topped box (40 cm long×27 cm wide×27 cm high) divided into a small area (2/5) and a large area (3/5) by a partition that extended 20 cm above the walls. There was a 7.5×7.5 cm opening in the partition at floor level. The small compartment was painted black and the large compartment white. The floor of each compartment was marked into 9 cm squares. The white compartment was illuminated by a 100 W tungsten bulb 17 cm above the box and the black compartment by a similarly placed 60 W red bulb.
Animals that had been injected with drug or vehicle were placed individually into the center of the white area and their behavior observed during a 5 minute period by remote video recording. Four behavioral parameters were recorded every minute: the number of exploratory rears in the white and black sections, the number of line crossings in the black and white sections, the number of transitions between the two sections and the time spent in the black and white sections. Animals were tested in treatment groups of 8-10 and vehicle controls were run on each test day. Data were analysed by ANOVA and Dunnetts test.

Sprague Dawley rats [4] = test: exploratory/locomotor activity in automated activity cages; format: in vivo, rat
Protocol: B. The effects of CCK-8 and compound A on the exploratory behavior of the rat were examined in automated activity cages and by direct observation. […] [See Crawley, Pharm. Biochem & Behav. 20, 23-27 (1984).]
Male Sprague Dawley rats were injected ([…].) with CCK-8 and immediately placed in automated activity cages. Activity was measured for 30 minutes past injection.
Male SD rats were injected (s.c.) with the CCK antagonist compound A (0.0001-10 mg/kg) and immediately placed in the automated activity cages.

rats = test: direct observation of motoric behaviors in a novel environment (perspex cage); format: in vivo, rat; conditions: 0.1 mg/kg, 15 minute period 15 minutes after treatment
Protocol: In order to assess further the effect of Compound A on exploration in a novel environment, the motoric hehaviors of rats placed in a perspex cage was recorded by direct observation for a 15 minute period 15 minutes after treatment with Compound A.
Experimenters (unaware of the treatments the animals had received) recorded the frequency and duration of rearing, sniffing, grooming and cage crossing using a keypad interfaced to a BBC microcomputer.

humans = conditions: reported studies; cited from earlier work

CNC1=Nc2ccc(Cl)cc2C(c2ccccc2)=[N+]([O-])C1 [chlordiazepoxide]
spontaneous locomotor activity in a novel environment (Sprague Dawley rats [1]; literature (McElroy et al.)): increases spontaneous locomotor activity

CN1C(=O)CN=C(c2ccccc2)c2cc(Cl)ccc21 [diazepam]
preference of the animal for the black dimly lit side (DBA2 mice [2]): decrease the preference

CN1C(=O)[C@@H](NC(=O)c2cc3ccccc3[nH]2)N=C(c2ccccc2)c2ccccc21 [Compound A, 3(S)-(-)-1,3-dihydro-3-(2-indolecarbonylamino)-1-methyl-5-phenyl-2H-1,4-benzodiazepin-2-one]
preference for locomotion (line crossings) in the black side (DBA2 mice [3]; 0.5, 5.0 and 500 ug/kg, male DBA2 mice): abolished | difference in time spent in the black and white side (DBA2 mice [3]; 5.0 and 500 ug/kg, male DBA2 mice): abolished | active dose range (DBA2 mice [3]): 0.05 to 5.0 µg/kg | preference for rearing in the black side (DBA2 mice [3]; doses of 0.05, 0.5, 5.0 and 500 ug/kg, male DBA2 mice): significantly decreased | habituation and period of exploratory activity (Sprague Dawley rats [4]; 0.0001-10 mg/kg s.c.): delayed habituation and prolonged the period of exploratory activity | levels of activity at 25 minutes (Sprague Dawley rats [4]; 0.1 mg/kg s.c., 25 minutes): significantly above controls | effect on activity at 25 minutes (Sprague Dawley rats [4]; higher and lower doses than 0.1 mg/kg s.c. (bell-shaped dose response)): no significant effect | cage crossing (rats): significantly increased | rearing (rats): significantly increased | sniffing (rats): significantly increased

Cc1cccc(NC(=O)N[C@@H]2N=C(c3ccccc3)c3ccccc3N(C)C2=O)c1 [Compound B, (R)-N-(2,3-dihydro-1-methyl-2-oxo-5-phenyl-1H-1,4-benzodiazepin-3-yl)-N'-(3-methylphenyl)urea]
active dose range (DBA2 mice [3]): 0.005 to 0.05 µg/kg | difference in time spent in the black and white side (DBA2 mice [3]; dose of 0.005 ug/kg, male DBA2 mice): decreased | preference for rearing in the black side (DBA2 mice [3]; dose of 0.05 ug/kg, male DBA2 mice): abolished

CCK-4
induction of panic (humans): induce panic

CCK-8: carboxylterminal octapeptide of CCK-33, a naturally-occurring neuropeptide and the minimum fully active sequence
locomotor activity (Sprague Dawley rats [4]; 0.5-16 μg/kg i.p., 30 minutes past injection, novel environment): dose-dependently decreased | exploratory behavior in a novel environment (Sprague Dawley rats [1]; exogenous CCK-8, literature (Crawley)): decreases exploratory behavior | induction of panic (humans): induced gastrointestinal effects but not panic symptoms
